Assays:
Assay type in all cases: in vivo
[1] = system: human skin; assay: Visual evaluation of skin darkening after topical treatment of a human subject's arm; parameters: key to visual skin darkening, 2 WEEKS / visual skin darkening, 4 WEEKS / visual skin darkening, 8 WEEKS / visual skin darkening, 8 WKS + 1 WK / visual skin darkening, 8 WKS + 2 WKS / visual skin darkening, 8 WKS + 3 WKS: ++: Obvious visible tan-like color; +: Weak visible tan-like color; 0: No visible tan-like color; conditions: for visual skin darkening, 2 WEEKS: one volunteer, 2 weeks of treatment; for visual skin darkening, 8 WEEKS: 8 weeks of treatment; for induction of visible skin darkening (in words): 1% topical twice a day, six to eight weeks; for visual skin darkening, 8 WKS + 1 WK: 8 weeks topical treatment followed by 1 week without any treatment; for visual skin darkening, 8 WKS + 2 WKS: 8 weeks topical treatment followed by 2 weeks without any treatment; for visual skin darkening, 8 WKS + 3 WKS: 8 weeks topical treatment followed by 3 weeks without any treatment
Protocol: All the phospholipids were dissolved in an ethanol/propylene glycol vehicle (70/30, v/v) at the concentration of 1% of solid phospholipid powder. Preparations 1, 2 and 3 were tested for their ability to induce skin darkening in one human subject, with informed consent. One volunteer, Fitzpatrick skin type II, with no history of skin cancer, no skin disease or unusual skin reaction, and no topical treatments on the study sites (the upper and lower parts of the arm) within a period of 30 days before enrollment and during the treatment period, was treated with preparations 1-3. Different preparations were used in four different studies. Two studies used the upper part of the arm, and two other studies used the lower part of the arm, which were treated twice a day for six to eight weeks with 10 μl of test phospholipid solutions (1%) in ethanol: propylene glycol (70:30, v/v) vehicle, or with vehicle alone. No other products were used and no sun exposure occurred during the treatment period. Skin darkening was evaluated visually, and in some cases also by using a chromameter (ChromaMeter, Minolta, Osaka, Japan) and DRS (see Nguyen B. C., Br. J. Dermatol. 2003, 149(2):332-40). Measurements were taken at 4 and 8 weeks. The DRS instrument was assembled using a tungsten halogen light source (Model LS- 1, Ocean Optics, Dunedin, Fla., USA), Miniature Fiber Optic Spectrometer (Model USB2000, Ocean Optics, Dunedin, Fla., USA) and custom-designed bifurcated fiber optic probe (Multimode Fiber Optics Inc, East Hanover, N.J., USA). The scale used for reporting visual skin darkening is defined in the Table 1. The visual tan-like color was somewhat stronger on the upper arm, relative to lower arm, possibly because of slightly darker baseline color of the lower arm than the upper arm. The visual results are summarized in Table 2, including the fading time of the darker color, when treatment was terminated at 8 weeks and skin color was followed for additional three weeks.

[2] = system: human skin; assay: Skin colour L* by chromameter after topical treatment of a human subject's arm; conditions: 4 weeks of treatment, 1% topical twice a day; vehicle 67.28
Protocol: (§1) All the phospholipids were dissolved in an ethanol/propylene glycol vehicle (70/30, v/v) at the concentration of 1% of solid phospholipid powder.
(§2) Preparations 1, 2 and 3 were tested for their ability to induce skin darkening in one human subject, with informed consent. One volunteer, Fitzpatrick skin type II, with no history of skin cancer, no skin disease or unusual skin reaction, and no topical treatments on the study sites (the upper and lower parts of the arm) within a period of 30 days before enrollment and during the treatment period, was treated with preparations 1-3. Different preparations were used in four different studies. Two studies used the upper part of the arm, and two other studies used the lower part of the arm, which were treated twice a day for six to eight weeks with 10 μl of test phospholipid solutions (1%) in ethanol: propylene glycol (70:30, v/v) vehicle, or with vehicle alone. No other products were used and no sun exposure occurred during the treatment period.
(§3) Skin darkening was evaluated visually, and in some cases also by using a chromameter (ChromaMeter, Minolta, Osaka, Japan) and DRS (see Nguyen B. C., Br. J. Dermatol. 2003, 149(2):332-40). Measurements were taken at 4 and 8 weeks. […]

[3] = system: human skin; assay: Melanin deposition by DRS after topical treatment of a human subject's arm; conditions: 4 weeks of treatment, 1% topical twice a day; vehicle 1.248
Protocol: as §1, §2, §3

[4] = 1% in ethanol/propylene glycol (70/30), 10 μl twice a day, topical, arm
[5] = after termination of 8 weeks topical treatment

Substance | visual skin darkening, 2 WEEKS [1, 4] | visual skin darkening, 8 WEEKS [1, 4] | induction of visible skin darkening (in words) [1] | visual skin darkening, 8 WKS + 1 WK [1] | visual skin darkening, 8 WKS + 2 WKS [1] | visual skin darkening, 8 WKS + 3 WKS [1] | L* (Chromameter) [2] | Melanin (DRS, arbitrary units) [3] | time at which darkening started to fade after termination of topical treatment [1, 5] | time the darkening remained visible after the end of the topical treatment [1, 5] | change of visible skin darkening with routine daily activities (e.g., after water and soap washing) ([1]; during topical treatment) | visual skin darkening, 4 WEEKS ([1]; 1% in ethanol/propylene glycol (70/30), 10 μl twice a day, topical, arm, 4 weeks of treatment)
Lysophosphatidylcholine [Preparation 2] | + | ++ | induced visible skin darkening | ++ | + | 0 | 67.69 | 1.304 arbitrary units |  |  |  | 
lysophosphatidylcholine [LPC] |  |  |  |  |  |  |  |  | 14 to 20 days | at least 14 days | did not change | 
lysophosphatidylcholine [Preparation 1] | + | ++ | induced visible skin darkening | ++ | + | 0 | 68.27 | 1.274 arbitrary units |  |  |  | ++

— US20080241085A1, “COMPOSITIONS FOR USE IN DARKENING THE SKIN” (priority 2007, published 2008)
